Results as given in publication PMC3894197, “Penam Sulfones and β-Lactamase Inhibition: SA2-13 and the Importance of the C2 Side Chain Length and Composition” (PLoS ONE, 2014).

Key:
SHV-1 [1] = target: T1, SHV-1 (Klebsiella pneumoniae, UniProt P0AD64); test: IC50 by nitrocefin hydrolysis after pre-incubation of enzyme and inhibitor; format: biochemical
T1 construct: made in house
Description: (§1) Measurements were performed using glass cuvettes with 1 mL final volume in 1 mM phosphate-buffered saline (PBS) at pH 7.4 as previously described.

wt SHV-1 = target: T2, wt SHV-1 (Klebsiella pneumoniae, UniProt P0AD64); test: biochemical; format: biochemical
T2 construct: made in house
T2 sequence (P0AD64 22-286): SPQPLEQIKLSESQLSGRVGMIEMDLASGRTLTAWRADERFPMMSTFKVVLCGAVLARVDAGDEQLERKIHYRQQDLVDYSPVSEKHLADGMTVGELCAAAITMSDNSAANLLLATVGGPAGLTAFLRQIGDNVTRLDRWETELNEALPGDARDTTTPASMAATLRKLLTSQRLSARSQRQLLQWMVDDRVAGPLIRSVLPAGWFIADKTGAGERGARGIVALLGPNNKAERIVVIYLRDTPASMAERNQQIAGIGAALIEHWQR
Description: as §1

SHV-1 [2] = target: T1, SHV-1; test: Inactivation kinetics (kinact, KI, kinact/KI) with nitrocefin; format: biochemical
Description: kinact (the first-order rate constant of inactivation) was determined by monitoring the inactivation of the enzyme by increasing concentrations of inhibitor over a time course using 21 nM of enzyme and 100 µM of nitrocefin according to a previously published method. The k obs determined using Origin (OriginLab Corporation) to plot the reciprocal of the ordinate of the intersection of the straight lines obtained from the initial velocity of inhibition, v o, and the final velocity of inhibition, vf. Each k obs was plotted against the inhibitor concentration [I] and fit to equation 2 to calculate k inact and k inact/K I. [drawing 2] (2)

SHV-1 [3] = target: T1, SHV-1; test: Partition ratio (turnover number, tn); format: biochemical; conditions: SHV-1, 24 hour incubation, loss of >90% nitrocefin hydrolysis
Description: The partition ratio (turnover number, t n = k cat/k inact) or the partitioning of the initial enzyme-inhibitor complex between hydrolysis and enzyme inactivation was measured by incubating fixed enzyme concentrations with increasing amounts of inhibitor over a 24 hour period in a total volume of 100 µL as described. After 24 hours, a 20 µL aliquot of the incubation mix was removed and the steady-state hydrolysis of nitrocefin was measured and compared to an uninhibited control. The t n was determined as the inhibitor proportion that led to a loss of >90% of nitrocefin hydrolysis by the enzyme.

[4] = tested on: E. coli ATCC 35218 containing TEM-1; test: Antimicrobial disc assay; format: cell-based, Escherichia coli; conditions: 10 µg ampicillin and 10 µg inhibitor; disc and ampicillin alone 6 mm
Description: (§2) In brief, paper discs (6 mm diameter) were soaked with 10 µg inhibitor and 10 µg of ampicillin or cephalothin. Discs were placed on Mueller-Hinton (M-H) agar plates plated with 10^4–10^5 CFUs of Escherichia coli DH10B harboring SHV-1 or PDC-3 or E. coli ATCC 35218 containing TEM-1. Measured zone clearing diameters were used to determine susceptibility.
(§3) Supplementary file pone.0085892.s003.docx: Table S1 Antimicrobial disc assays. These assays were performed with 10 µg ampicillin and 10 µg inhibitor. The size of the disc and the ampicillin zone size alone is 6 mm. (DOCX) Click here for additional data file.

E. coli DH10B PDC-3 = test: Antimicrobial disc assay; format: cell-based, Escherichia coli; conditions: for Disc Assay Zone E. coli DH10B PDC-3: 10 µg ampicillin and 10 µg inhibitor, disc and ampicillin alone 6 mm
Description: as §2, §3

E. coli DH10B SHV-1 = test: Antimicrobial disc assay; format: cell-based, Escherichia coli; conditions: for Disc Assay Zone E. coli DH10B SHV-1: 10 µg ampicillin and 10 µg inhibitor, disc and ampicillin alone 6 mm
Description: as §2, §3

KPC-2 = tested on: KPC-2; design: method as in PMID 22330909; conditions: the defined K i represents the K m used in Ke et al.; cited from earlier work
SHV-1 [5] = target: T1, SHV-1; test: Reactivation of β-lactamase (k obs react) after inhibitor/enzyme incubation; format: biochemical; conditions: SHV-1, 90:1 inhibitor:enzyme, 30 min incubation
Description: Then, unbound inhibitor was washed out with a Macro Spin Column G10 (The Nest Group). A competition assay was performed with 100 µM of nitrocefin and a 5 µL aliquot of the incubated mixture at three different time points (5, 30, and 1440 min) to determine the reactivation of the enzyme. Tazobactam kinetic profiles are included for comparison. EnzFitter™ (Biosoft) and Microsoft Excel were used to analyze the data.

SHV K234R [6] = target: T3, SHV K234R (Klebsiella pneumoniae, UniProt P0AD64, K230R); test: biochemical; format: biochemical
T3 construct: GST (N, cleaved yes); made in house; host or cells: Origami2 (DE3) E. coli
T3 sequence (P0AD64 22-286 K230R): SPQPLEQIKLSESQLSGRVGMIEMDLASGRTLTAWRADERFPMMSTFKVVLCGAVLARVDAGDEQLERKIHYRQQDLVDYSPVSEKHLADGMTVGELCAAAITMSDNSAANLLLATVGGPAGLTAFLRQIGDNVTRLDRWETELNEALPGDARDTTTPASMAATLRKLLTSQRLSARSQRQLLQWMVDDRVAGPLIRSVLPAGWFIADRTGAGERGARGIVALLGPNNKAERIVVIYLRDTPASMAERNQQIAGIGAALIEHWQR
Description: as §1

SHV K234R [7] = target: T3, SHV K234R; test: Circular dichroism thermal denaturation; conditions: CD at 208 nm, apo-K234R 48.2°C
Description: (§4) Circular dichroism (CD) was carried out on the SHV-1 and the SHV K234R proteins with and without SA2-13 and this is presented in Figure S1. In short, CD was performed on a JASCO J-815 spectrometer with a Peltier-effect temperature controller (GE Healthcare) as previously described. Quartz cells with a 0.1 cm pathlength were used for experiments (Hellma). Thermal denaturation was performed from 22–72°C with a heating rate of 2°C/min and raw data was corrected for the fraction of denatured protein (f u). The collected data at 208 nm was utilized to calculate a melting temperature (T m).

SHV-1 [8] = target: T1, SHV-1; test: Circular dichroism thermal denaturation; conditions: CD at 208 nm, apo-SHV-1 54.2°C
Description: as §4

SHV-1 [9] = target: T1, SHV-1; conditions: cited from earlier work

T1 sequence (P0AD64 22-286): as the sequence (P0AD64 22-286) above

| Structure (SMILES) | IC50 (SHV-1 [1]) | Ki (wt SHV-1) | Ki (SHV-1 [2]) | k inact/K I (SHV-1 [2]; SHV-1) | t n 24h (SHV-1 [3]) | Disc Assay Zone E. coli ATCC 35218 (TEM-1) [4] | Disc Assay Zone E. coli DH10B PDC-3 (E. coli DH10B PDC-3) | Disc Assay Zone E. coli DH10B SHV-1 (E. coli DH10B SHV-1) | k obs react 30 min (SHV-1 [5]) | also measured |
| --- | --- | --- | --- | --- | --- | --- | --- | --- | --- | --- |
| CC1(C(=O)OCC(N)=O)C(C(=O)O)N2C(=O)CC2S1(=O)=O (centres unmarked) [PSR-3-226] | 370 ± 30 nM | 2600 ± 300 nM | 1000 ± 100 nM | 60000 ± 10000 M⁻¹ s⁻¹ | >1500 | 12 mm | 12 mm | 6 mm |  | microbial activity versus AmpC (PDC-3) expressed in E. coli DH10B (E. coli DH10B PDC-3; disc assay): had microbial activity; K m against KPC-2 (KPC-2): 3.8 ± 0.4 µM |
| CC1(COC(=O)CCC(=O)O)C(C(=O)O)N2C(=O)CC2S1(=O)=O (centres unmarked) [PSR-4-155] | 440 ± 40 nM | 2700 ± 200 nM | 2100 ± 200 nM | 50000 ± 10000 M⁻¹ s⁻¹ | >1500 | 13 mm | 6 mm | 6 mm | >0.2 s⁻¹ | Ki fold higher compared to PSR-4-157 (wt SHV-1; SHV-1): ~2 fold; KI fold higher compared to PSR-4-157 (SHV-1 [2]; SHV-1): ~2 fold; kinact/KI fold lower compared to PSR-4-157 (SHV-1 [2]; SHV-1): 2 fold |
| CC1(COC(=O)CCCCC(=O)O)C(C(=O)O)N2C(=O)CC2S1(=O)=O (centres unmarked) [PSR-4-157] | 160 ± 10 nM | 1700 ± 100 nM | 1000 ± 200 nM | 100000 ± 20000 M⁻¹ s⁻¹ | >1500 | 11 mm | 6 mm | 6 mm |  | fold higher IC50 compared to SA2-13 (SHV-1 [1]; SHV-1): 2 fold |
| C[C@]1(COC(=O)CCCC(=O)O)[C@H](C(=O)O)N2C(=O)C[C@H]2S1(=O)=O [SA2-13] | 81 ± 7 nM | 1700 ± 100 nM | 190 ± 10 nM | 370000 ± 60000 M⁻¹ s⁻¹ | 120 | 14 mm | 6 mm | 6 mm | 0.004 ± 0.001 s⁻¹ | Ki (SHV K234R [6]): 2100 ± 200 nM; fold increase of K i for K234R SHV relative to wt SHV-1 (SHV K234R [6]; K234R vs wt SHV-1): 2 fold; melting temperature Tm of SHV K234R with inhibitor (SHV K234R [7]): unaffected; melting temperature Tm of SHV K234R with inhibitor (SHV K234R [7]; listed as MN-2-261): 48.7 °C; melting temperature Tm of SHV-1 with inhibitor (SHV-1 [8]): unaffected; melting temperature Tm of SHV-1 with inhibitor (SHV-1 [8]; listed as MN-2-261): 54.5 °C; k react fold decrease compared to tazobactam (SHV-1 [9]): about 10 fold |
| C[C@]1(Cn2ccnn2)[C@H](C(=O)O)N2C(=O)C[C@H]2S1(=O)=O [tazobactam, reference compound] |  |  |  |  | 5 | 21 mm | 14 mm | 6 mm | 0.040 ± 0.001 s⁻¹ | inhibition of SHV-1 expressing cells (E. coli DH10B SHV-1; DH10B E. coli, high SHV-1 expression): Inhibition was not observed |
